The values that follow come from ChEMBL document CHEMBL1201862, “PubChem BioAssay data set” (2004).

The term GI50 denotes the concentration at which growth is held to half of that of the control.

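All cell lines were grown in 96-well plates and treated with compound for 48 hours. At the GI50, growth is halved.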 Activity calls are given as the source filed them. No stated cut-off is given here; in the data, active = GI50 up to about 1.1 µM and inactive = higher. Non-standard residues stand in square brackets, D forms with d. Residues, ends and D or L forms follow the SMILES beside them. ξ: configuration not given here. *: point of attachment. ξNMeF = CNC(Cc1ccccc1)C(=O)O; NMeV = CN[C@H](C(=O)O)C(C)C; Boc = CC(C)(C)OC(=O)*; OBn = c1ccc(CO*)cc1 Bounds are passed on as bounds.

Common to all, as to experiment: DTP human tumour cell line panel, 48 h
Assay [1] has as its system RXF 631.
Assay [2] concerns KM-20L2.
In assay [3] the test system is XF498.
Assay [4] relates to LXFL 529.
The subject of assay [5] is DMS-114.
Assay [6] concerns M19-MEL.
Assay [7] has as its system DLD-1.
The subject of assay [8] is HOP-18.
Assay [9] concerns Hs-578T.

In the case of `O=c1cc(/C=C/c2ccccc2)c2ccc(O/C(=C\c3ccccc3)c3nc4ccccc4c(=O)o3)cc2o1`, the GI50 was 28.1 µM (inactive) in [1]; 31.5 µM (inactive) in assay [2]; 14.9 µM (inactive) in assay [3]; 14.8 µM (inactive) in assay [4]; 15.1 µM (inactive) in [5]; 25.3 µM (inactive) in [6]. Also, the GI50 in [7] was 26.7 µM (inactive).
For the compound `CS(=O)(=O)OCCN(CCOS(C)(=O)=O)c1ccc(C=O)cc1`, the GI50 in [2] was 3.28 µM (inactive); in assay [8], 9.16 µM (inactive); in [3] it was 1.97 µM (inactive); in assay [4], 18.1 µM (inactive); in [5], 8.05 µM (inactive); in assay [9], 14.3 µM (inactive). Also, the GI50 was 12.6 µM (inactive) in assay [6] and 18.5 µM (inactive) in assay [7].
Turning to `CN1C(=O)CC2(C)c3cc(C=O)ccc3N(C)C12` (stereo not drawn), the GI50 in assay [1], in assay [2], in [8], in [3], in assay [4] and in assay [5] was > 100 µM (inactive) throughout. The GI50 in [6] and in [7] was > 100 µM (inactive) in each case.
For `COC(=O)C1CCC(N2C(=O)CCC2C(=O)OC)=N1` (stereo not drawn), the GI50 in assay [1], in assay [2], in assay [8], in assay [3], in assay [4] and in assay [6] was > 100 µM (inactive) throughout. Further, the GI50 in [7] was > 100 µM (inactive).
With `CC(=O)c1ccc(NC(=O)C(=O)CC(=O)c2sc(-n3nc(-c4ccccc4)cc3-c3ccccc3)nc2C)cc1`, the GI50 in assay [1], in assay [2], in assay [4], in assay [5], in assay [6] and in [7] was > 100 µM (inactive) throughout.
Turning to `CC1=C(/C=C/C(C)=C/C=C/C(C)=C/C=C/C=C(C)/C=C/C=C(C)/C=C/C=C(C)/C=C/C=C(\C)C(=O)O)C(C)(C)CCC1`, the GI50 in assay [1] is > 100 µM (inactive); in assay [2], > 100 µM (inactive); in assay [8], < 0.01 µM (active); in assay [4], > 100 µM (inactive); in [5] it was > 100 µM (inactive); in [7] it was > 100 µM (inactive).
Regarding `CC(=O)OCC1OC(n2c(-c3ccc(C)cc3)cc(-c3ccccc3)c(C#N)c2=O)C(OC(C)=O)C(OC(C)=O)C1OC(C)=O` (stereo not drawn), the GI50 in [1] is > 100 µM (inactive); in [2] it was > 100 µM (inactive); in [3], 86.9 µM (inactive); in assay [4] it was > 100 µM (inactive); in assay [5], > 100 µM (inactive); in [6], > 100 µM (inactive). Besides, in [7], the GI50 was > 100 µM (inactive).
As to `CCOC(=O)C(=Cc1ccc(Oc2ccccc2)cc1)C(=O)OCC`, the GI50 in assay [1] is 3.03 µM (inactive); in assay [2] it was 4.65 µM (inactive); in assay [8], 13.8 µM (inactive); in [3] it was 4.32 µM (inactive); in assay [4], 2.29 µM (inactive); in [5] it was 3.07 µM (inactive). In addition, the GI50 in assay [7] is 2.14 µM (inactive).
On to `O=C1c2ccccc2C(=O)C2C1C1C(=O)c3ccccc3C(=O)C21` (stereo not drawn), for which the GI50 in assay [1] was > 100 µM (inactive); in assay [2], > 100 µM (inactive); in assay [8], 8.69 µM (inactive); in assay [4], > 100 µM (inactive); in assay [5] it was > 100 µM (inactive); in [6] it was 45.4 µM (inactive). The GI50 in [7] was 15.2 µM (inactive).
With `O=C(N/C(=C\c1ccccc1Cl)c1nc2ccccc2[nH]1)c1ccccc1`, the GI50 in assay [1] was 26.5 µM (inactive); in assay [2], 22.8 µM (inactive); in assay [3] it was 23.8 µM (inactive); in assay [4], 21.9 µM (inactive); in [5], 35 µM (inactive); in assay [6], 33 µM (inactive). In addition, the GI50 in assay [7] is 30.2 µM (inactive).
In the case of `Cc1ccc(-c2cc(=O)c3cc(C)c(C)c(C(=O)O)c3o2)cc1C`, the GI50 in [1], in [2], in assay [8], in assay [4], in assay [5] and in [6] was > 100 µM (inactive) throughout. The GI50 in assay [7] is > 100 µM (inactive).
On to `O=C(CC(=O)c1ccccc1NC1=Cc2ccccc2C(=O)C1=O)C(=O)NC1=C(Cl)C(=O)c2ccccc2C1=O`, for which the GI50 in assay [1] was 4.37 µM (inactive); in assay [2] it was 9.77 µM (inactive); in [3], 2.49 µM (inactive); in assay [4], 2.46 µM (inactive); in assay [5], 1.68 µM (inactive); in assay [9], 1.9 µM (inactive). Moreover, the GI50 was 0.225 µM (active) in assay [6] and 2.38 µM (inactive) in [7].
Consider `CC(C)(C)NNC(=O)/C(=C/c1ccc(Oc2ccc(Cl)c(Cl)c2)cc1)NC(=O)c1ccccc1`, for which the GI50 was 34 µM (inactive) in assay [1]; 95.3 µM (inactive) in [2]; > 100 µM (inactive) in assay [8]; > 100 µM (inactive) in assay [3]; > 100 µM (inactive) in assay [4]; 18.5 µM (inactive) in assay [5]. For the same compound, the GI50 in [6] is > 100 µM (inactive); in assay [7], 31.1 µM (inactive).
In the case of `O=C(N/N=C/c1ccccc1O)N/N=C/c1ccccc1O`, the GI50 in [1], in assay [2], in assay [8], in assay [3], in [4] and in assay [5] was > 100 µM (inactive) each time. Further, the GI50 in [6] and in assay [7] was > 100 µM (inactive) throughout.
For the compound `COC1CCC2C(NS(=O)(=O)c3ccc(C)cc3)CCCC2O1.Cc1ccc(S(=O)(=O)NC(C)(C)C=O)cc1` (stereo not drawn), the GI50 in [1] was 10.2 µM (inactive); in assay [2], 32.6 µM (inactive); in assay [5] it was 9.31 µM (inactive); in assay [6], 12.7 µM (inactive); in [7], 20.3 µM (inactive).
Take `O=C(NO)c1ccc(O)c(O)c1`: the GI50 in [1] is > 100 µM (inactive); in assay [2] it was > 100 µM (inactive); in assay [8] it was 72.3 µM (inactive); in [3], > 100 µM (inactive); in [4], > 100 µM (inactive); in assay [5], 55.1 µM (inactive). Moreover, the GI50 in assay [6] and in assay [7] was > 100 µM (inactive) each time.
Turning to `CC(C)[C@@H](C(=O)N(C)[C@H](C(=O)N1CCC[C@H]1C(=O)OCc1ccccc1)C(C)C)N(C)C(=O)C(Cc1ccccc1)N(C)C(=O)[C@H](NC(=O)OC(C)(C)C)C(C)C` (stereo partly drawn) (Boc-[dV][ξNMeF][NMeV][NMeV]P-OBn), the GI50 is > 31.6 µM (inactive) in assay [2]; > 72.6 µM (inactive) in assay [8]; 13.4 µM (inactive) in [3]; 42.9 µM (inactive) in [4]; 20.6 µM (inactive) in [5]; > 31.6 µM (inactive) in [6]. Moreover, in assay [7], the GI50 was > 31.6 µM (inactive).
`O=c1[nH]c2c(O)cccc2c2cc3c(c(O)c12)OCO3` [NARCIPRIMINE]: the GI50 in [2] is 12.8 µM (inactive); in assay [8] it was 0.0524 µM (active); in [3], 15.6 µM (inactive); in [4] it was 18.3 µM (inactive); in assay [5], 19.1 µM (inactive); in [6], 20.3 µM (inactive). Further, in assay [7], the GI50 is 14.6 µM (inactive).
